Data published in patent US11141403B2, “Benzimidazoles and indoles as taro inhibitors” (MERCK SHARP & DOHME CORP., priority 2015, dated 2021).
Several values for one entry are separate records, joined by “and”; a condition that tells them apart may be missing. Equal values may be shown once. Read-outs that look alike come from different tables or passages of the source.

What was measured:
[1] = tested on: MRSA COL (MB5393); assay: TarO Inhibitor/β-Lactam Synergy Assay; format: cell-based, Staphylococcus aureus; settings: 20 hours; for IC95: TarO inhibitor alone, OD600, 95% growth inhibition, read-out: MITC95 TarO inhibitor alone, Bacteria: SA_MB5393; for MITC95 TarO inhibitor + 4 μg/mL IPM; Bacteria: SA_MB5393: in combination with 4 μg/mL imipenem; for MITC95 TarO inhibitor + 4 μg/mL IPM; Bacteria: SA_MB5393 / MITC95 TarO inhibitor + 8 μg/mL DCX; Bacteria: SA_MB5393: OD600; for MITC95 TarO inhibitor + 8 μg/mL DCX; Bacteria: SA_MB5393: in combination with 8 μg/mL dicloxacillin
Outline: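 TarO inhibitors titrated 2-fold from 200 μM (2% DMSO) against MRSA COL, 5×10^5 CFU in CAMHB, with β-lactam fixed at clinical breakpoint (imipenem 4 μg/ml or dicloxacillin 8 μg/ml). Incubated 20 h at 37 °C without shaking; relative growth read as OD600.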

[2] = tested on: MRSA COL (MB 5393); assay: In Vivo Murine Systemic Infection Model; set-up: species or system Staphylococcus aureus; settings: for Bacteria recovered: tid, neutropenic Balb/C mice, 24 h post challenge; for Fold reduction vs. vehicle alone: kidney cfu
Protocol: The murine systemic infection model determines the therapeutic efficacy of TarO inhibitor/β-lactam combinations in vivo. Staphylococci bacteria can cause a systemic infection and establish a robust growth in the kidneys of the infected animal. MRSA COL can establish an infection even in the presence of β-lactam antibiotic due MRSA COL resistance to β-lactam antibiotics.
Female Balb/C mice were rendered neutropenic (immune suppressed) with a single 250 mg/kg intraperitoneal (ip) dose of cyclophosphamide on […]. MRSA COL (MB 5393) was grown for 16 hours in trypticase soy broth (TSB) at 37° C. and 0.5 mL of diluted culture (˜1×10^4 cfu) was administered intraperitoneal (IP). The TarO inhibitor and β-lactam antibiotic were administered alone or in combination by subcutaneous route at 2, 5 and 8 hr. post challenge (sc, tid). Twenty four hours post challenge mice were euthanized and the kidneys harvested, weighed, homogenized and plated to measure the total number of bacteria recovered as colony forming unit (CFU) remaining in compound treated groups as compared to vehicle (saline) or β-lactam antibiotic alone groups (statistical analyses was determined by one way ANOVA).

[3] = target: TarO (Staphylococcus aureus, UniProt Q2G060); assay: TarO Biochemical Enzymatic Assay (LC-MS end point, C55-PP-GlcNAc (LIPID III) production); settings: TarO membrane preparation derived from MRSA COL; read-out: TARO inhibitor IC50
Description: The pathway for the biosynthesis of wall teichoic acid (WTA) in Staphylococci involves a series of biochemical enzymatic reactions by proteins encoded by the tar genes (teichoic acid ribitol). The first enzymatic step in the synthesis of WTA is initiated by TarO, N-acetylglucosaminyl-1-P transferase, which catalyzes the transfer of N-acetyl-glucosamine-phosphate (GlcNAc-P) to an undecaprenyl phosphate (C55-P), also known as bactoprenyl phosphate, to generate C55-PP-GlcNAc (LIPID III).
The TarO biochemical enzymatic assay is a liquid chromatography-mass spectroscopy (LC-MS) based end point assay that measures C55-P-P-GlcNAc (LIPID III) production. The TarO biochemical enzymatic assay was performed in a 384-well microtiter plate (Labcyte) with a reaction volume of 20 μl. […] The linearity of C55-PP-GlcNAc concentration versus mass spectrometric signal (AC55-PP-GlcNAc/A15C-C55-PP-GlcNAc) was determined with purified C55-PP-GlcNAc. The IC50 values were calculated using the nonlinear regression analysis (sigmoidal dose response fit allowing for a variable slope) of percent inhibition data with minimum and maximum values set to 0 and 100 percent.

TarO, sequence (Q2G060 1-351): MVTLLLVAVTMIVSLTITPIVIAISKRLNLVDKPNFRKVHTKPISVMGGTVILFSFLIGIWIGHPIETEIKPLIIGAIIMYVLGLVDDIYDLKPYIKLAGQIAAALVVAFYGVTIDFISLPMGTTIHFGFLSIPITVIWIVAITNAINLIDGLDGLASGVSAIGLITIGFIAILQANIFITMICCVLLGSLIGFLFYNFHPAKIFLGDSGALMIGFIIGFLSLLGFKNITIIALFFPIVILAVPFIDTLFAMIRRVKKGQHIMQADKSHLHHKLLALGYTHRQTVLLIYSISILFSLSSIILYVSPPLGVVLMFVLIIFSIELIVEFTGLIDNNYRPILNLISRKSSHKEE

Structure (SMILES) | IC95 ([1]; Staphylococcus aureus) [µM] | MITC95 TarO inhibitor + 4 μg/mL IPM; Bacteria: SA_MB5393 [1] [µM] | MITC95 TarO inhibitor + 8 μg/mL DCX; Bacteria: SA_MB5393 [1] [µM] | other results
CC1(C)[C@@H]2CC[C@@]1(C)[C@H](NC(=O)CCn1c(C3CCCCC3)nc3ccccc31)C2 [Example 37, 3-(2-cyclohexyl-1H-benzimidazol-1-yl)-N-[(1R,2R,4R)-1,7,7-trimethylbicyclo[2.2.1]hept-2-yl]propanamide] | > 200 | 1.69 | 12.50 | Bacteria recovered ([2]; Example 37 (100 mg/kg) + imipenem (5 mg/kg) sc): 2.6×10^4 cfu/g kidney; Fold reduction vs. vehicle alone ([2]; Example 37 (100 mg/kg) + imipenem (5 mg/kg)): 730 and 730.8; Bacteria recovered ([2]; Example 37 alone (100 mg/kg) sc): 1.5×10^7 cfu/g kidney; Fold reduction vs. vehicle alone ([2]; Example 37 alone (100 mg/kg)): 1.3
CCN(C(=O)CCn1c(C2CCCN(C(=O)OC(C)(C)C)C2)nc2ccccc21)C1CCCCC1 (centres unmarked) [Example 54] | – | 1.56 | 12.50 | IC50 [3]: 0.45 µM; IC95 [1]: 100 µM
CCN(C(=O)CCn1c(N2CCC[C@H](NC(=O)OC(C)(C)C)C2)nc2ccccc21)C1CCCCC1 [Example 59, tert-butyl [(3S)-1-(1-{3-[cyclohexyl(ethyl)amino]-3-oxopropyl}-1H-benzimidazol-2-yl)piperidin-3-yl]carbamate] | > 200 | 50 | 150 | –
CCN(C(=O)CCn1c(CN2CCC(C(C)(C)C)CC2)nc2ccccc21)C1CCCCC1 [Example 60, 3-{2-[(4-tert-butylpiperidin-1-yl)methyl]-1H-benzimidazol-1-yl}-N-cyclohexyl-N-ethylpropanamide] | > 200 | 0.78 | 6.25 | –
CCC1CCN(Cc2nc3cc(C)ccc3n2CCC(=O)N(CC)C2CCCCC2)CC1 [Example 61, N-cyclohexyl-N-ethyl-3-{2-[(4-ethylpiperidin-1-yl)methyl]-5-methyl-1H-benzimidazol-1-yl}propanamide] | 50 | 6.25 | 25 | –
CCC1CCN(Cc2nc3ccccc3n2CCC(=O)N(CC)C2CCCCC2)CC1 [Example 62, N-cyclohexyl-N-ethyl-3-{2-[(4-ethylpiperidin-1-yl)methyl]-1H-benzimidazol-1-yl}propanamide] | > 200 | 6.25 | 25 | –
CC1CCN(C(=O)CCn2c(C3CCCCC3)nc3ccccc32)CC1 [Example 63, 3-(2-cyclohexyl-1H-benzo[d]imidazol-1-yl)-1-(4-methylpiperidin-1-yl)propan-1-one] | > 200 | 18.75 | – | –
CCN(C(=O)CCn1c(C2CCCCC2)cc2ccccc21)C1CCCCC1 [Example 64, N-cyclohexyl-3-(2-cyclohexyl-1H-indol-1-yl)-N-ethylpropanamide] | > 200 | 6.20 | – | –
C[C@@H](O)[C@H]1C(=O)N2C(C(=O)O)=C(SCCN=CN)C[C@H]12 [imipenem, reference compound] | – | – | – | Bacteria recovered ([2]; Imipenem alone (5 mg/kg) sc): 1.0 × 10^6 cfu/g kidney; Fold reduction vs. vehicle alone ([2]; Imipenem alone (5 mg/kg)): 19
